The structures appear in SMILES notation.

The text below walks through data of the Kinase Knowledgebase extract (Sharma et al. 2016).

MAPK14 (human), sequence (Q16539 whole entry, looked up): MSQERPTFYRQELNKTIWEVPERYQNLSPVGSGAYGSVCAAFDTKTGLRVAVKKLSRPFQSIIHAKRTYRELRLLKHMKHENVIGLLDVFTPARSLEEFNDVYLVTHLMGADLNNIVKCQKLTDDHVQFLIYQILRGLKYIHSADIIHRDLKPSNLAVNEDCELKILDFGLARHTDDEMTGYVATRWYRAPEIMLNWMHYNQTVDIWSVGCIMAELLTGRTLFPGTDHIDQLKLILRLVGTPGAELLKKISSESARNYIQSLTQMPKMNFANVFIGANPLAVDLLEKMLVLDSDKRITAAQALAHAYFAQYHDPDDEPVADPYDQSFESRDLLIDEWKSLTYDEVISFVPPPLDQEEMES

This assay concerns the target MAPK14 (human) (UniProt Q16539). Kind of assay: TNF-alpha Release Inhibition (LPS-stimulated PBMCs). The settings on record: pbmc.
In the case of `COc1ccc2c(-c3ccncc3)c(-c3cccc(F)c3)[nH]c2c1`, the IC50 came out at 0.3 µM.

`Fc1ccc(-c2[nH]c3ccccc3c2-c2ccncc2)cc1` yielded an IC50 above 10 µM.

Take `CC(=O)Nc1ccc2c(-c3ccncc3)c(-c3ccc(F)cc3)[nH]c2n1`: the IC50 was found to be 0.1 µM.

`COc1ccc2c(-c3ccncc3)c(-c3ccc(F)cc3)[nH]c2c1` came in with an IC50 of 0.4 µM. This IC50 lies about 4-fold higher than the previous one.

Turning to `Nc1ccc2c(-c3ccncc3)c(-c3ccc(F)cc3)[nH]c2c1`, the IC50 amounted to 0.2 µM.

The molecule `COc1ccc2c(-c3ccncc3)c(-c3cccc(Cl)c3)[nH]c2c1` had an IC50 of 0.125 µM.

On to `Nc1ccc2c(-c3ccncc3)c(-c3ccc(F)c(F)c3)[nH]c2n1`, for which the IC50 turned out to be 0.03 µM.

With `Nc1cc(OCc2ccc(F)cc2)c2c(-c3ccncc3)c(-c3ccc(F)cc3)[nH]c2n1`, the IC50 came to 0.002 µM.

Molecule `Nc1ccc2c(-c3ccncc3)c(-c3cccc(Cl)c3)[nH]c2n1` showed an IC50 of 0.009 µM.

In the case of `CN(C)c1ccc2c(-c3ccncc3)c(-c3ccc(F)cc3)[nH]c2n1`, the IC50 amounted to 0.4 µM. This IC50 lies about 44-fold higher than the previous one.

`Oc1ccc2c(-c3ccncc3)c(-c3ccc(F)cc3)[nH]c2n1` showed an IC50 above 10 µM.

`Fc1ccc(-c2[nH]c3ncccc3c2-c2ccncc2)cc1`: the IC50 was determined as 0.4 µM.

Regarding `COc1ccc2c(-c3ccncc3)c(-c3ccc(F)cc3)[nH]c2n1`, the IC50 was 0.2 µM.

As for `CCCCOc1cc(OC)nc2[nH]c(-c3ccc(F)cc3)c(-c3ccncc3)c12`, the IC50 is 0.006 µM. This IC50 is about 33-fold lower than that of the molecule before.

Molecule `CCCCOc1cc(O)nc2[nH]c(-c3ccc(F)cc3)c(-c3ccncc3)c12` yielded an IC50 of 0.015 µM.

`COc1ccc2c(-c3ccncc3)c(-c3cccc(I)c3)[nH]c2c1` had an IC50 of 0.1 µM.

In turn, `CCOc1ccc(-c2[nH]c3nc(N)ccc3c2-c2ccncc2)cc1Cl` had an IC50 of 0.06 µM.

Molecule `Nc1ccc2c(-c3ccncc3)c(-c3cccc(I)c3)[nH]c2n1` registered an IC50 of 0.04 µM.

In turn, `COc1ccc2c(-c3ccncc3)c(-c3ccc(I)cc3)[nH]c2c1` returned an IC50 of 6.5 µM. Compared with the last molecule, the IC50 is about 160-fold higher.

`Fc1ccc(-c2[nH]c3nc(NCc4ccccc4)ccc3c2-c2ccncc2)cc1` registered an IC50 of 0.3 µM.
